For one series, the system named is tumor cells. The experiment in a line: In vitro antitumor activity. The series is classed as cell-based.
Another series has as its system MEL-28 human melanoma. The experiment in a line: Cytotoxicity IC50 (after Berjeron et al).
Series [1] has as its system A549 human lung carcinoma. The experiment in a line: Cytotoxicity IC50 (after Berjeron et al).
Source text: (§1) Methodology: after Berjeron et al, Biochem and Bioph Res. Comm., 1984, 121, 3, 848-854.
The test system of series [2] is HT-29 human colon carcinoma. The experiment in a line: Cytotoxicity IC50 (after Berjeron et al).
Source text: as §1
In another series the test system is P388 Murine lymphoma. The experiment in a line: Cytotoxicity IC50 (after Berjeron et al).
The test system of series [3] is DU145 human prostate carcinoma. The series is described as follows: Cytotoxicity IC50 (after Berjeron et al). The format is cell-based. An excerpt: P388=Murine lymphoma. A549=human lung carcinoma. HT-29=human colon carcinoma. MEL-28=human melanoma. DU145=human prostate carcinoma
Chem. 2000, 65, 782-792. Their synthesis was published before their discovery (l): Org. […] A549=human lung carcinoma. HT-29=human colon carcinoma. MEL-28=human melanoma. DU145=human prostate carcinoma

Series [4] relates to tumor cells (clonogenic assays). Particulars: compared with III (didemnin B); cited from earlier work.
The next series has as its system pancreatic carcinoma. As to conditions: compared with III (didemnin B); cited from earlier work.
Another series relates to protein biosynthesis. Particulars: compared with III (didemnin B); cited from earlier work.
In another series the test system is NCI 60 cell panel. Particulars: cited from earlier work.
[5] abbreviates: Homo sapiens, SK-MEL-28, read-out: Cytotoxicity of aplidine derivatives IC50 (Molar) MEL28.
[6] abbreviates: Homo sapiens, A549, read-out: Cytotoxicity of aplidine derivatives IC50 (Molar) A549.
Where [7] appears, read: Homo sapiens, HT-29, read-out: Cytotoxicity of aplidine derivatives IC50 (Molar) HT29.
[8] abbreviates: Mus musculus, P388, read-out: Cytotoxicity of aplidine derivatives IC50 (Molar) P388.
The mark [9] stands for this setting: read-out: Cytotoxicity of aplidine derivatives IC50 (Molar) MEL28, MEL28.
Setting [10] is: DU145, read-out: Cytotoxicity of aplidine derivatives IC50 (Molar) DU145.
The mark [11] stands for this setting: read-out: Cytotoxicity of aplidine derivatives IC50 (Molar) A549, A549.
Where [12] appears, read: read-out: Cytotoxicity of aplidine derivatives IC50 (Molar) HT29, HT29.
[13] abbreviates: read-out: Cytotoxicity of aplidine derivatives IC50 (Molar) P388, P388.

Where two headings read alike, the source gives them in different places. *1 amine or outer side, *2 acyl side, *3 side chain or, on linkers, in order; H or OH if unused. Where a SMILES comes first, the peptide text is derived from it. Bridges are numbered along the chain shown (N, C = ends). [ ]: non-standard residue; d: D form. The star is where a group is joined. ξ: configuration not given here. X1 = CC[C@H](C)[C@@H](N[*:1])[C@@H](O)CC(=O)O[C@H](C(=O)[C@H](C)C(=O)[*:2])C(C)C; X2 = CC[C@H](C)[C@@H](N[*:1])[C@@H](O)CC(=O)[*:2]; X4 = CC(C)[C@H](N[*:1])C(=O)[C@H](C)C(=O)[*:2]; X3 = C[C@H](O[Si](C)(C)C(C)(C)C)C(=O)*; NMeY = CN[C@@H](Cc1ccc(O)cc1)C(=O)O; dNMeL = CN[C@H](CC(C)C)C(=O)O; Hiv = CC(C)[C@H](O)C(=O)O; Isobutyryl = CC(C)C(=O)*; Pyruvoyl = CC(=O)C(=O)*; Cbz = O=C(OCc1ccccc1)*; Boc = CC(C)(C)OC(=O)*; ξP = O=C(O)C1CCCN1; Ms = CS(=O)(=O)*

This is an account of results in US20080009435A1, “Synthetic methods for aplidine and new antitumoral derivatives, methods of making and using them” (Pharma Mar, S.A., a Spain corporation, priority 2000, published 2008).

Source text for MEL-28 human melanoma: as §1
Source text for P388 Murine lymphoma: as §1

Turning to [MeVal]^3-aplidine, the “in vitro antitumor activity” value with tumor cells is given as “high level of in vitro antitumor activity”.
The IC50 is the point on the concentration scale where inhibition reaches its midpoint. As to `CC[C@H](C)[C@H]1NC(=O)[C@@H](NC(=O)[C@@H](CC(C)C)N(C)C(=O)OCc2ccccc2)[C@@H](C)OC(=O)[C@H](Cc2ccc(OC)cc2)N(C)C(=O)[C@@H]2CCCN2C(=O)[C@H](CC(C)C)NC(=O)[C@@H](C)C(=O)[C@H](C(C)C)OC(=O)C[C@@H]1O` [SAPL3, Z-Didemnin A] (Cbz-[dNMeL]T[X1]LP[NMeY](Me); ester 2-C), the IC50 in the series with MEL-28 human melanoma (setting [5]) amounted to 4.64 nM; in [1] (setting [6]), 2.32 nM; in [2] (setting [7]), 4.64 nM; with P388 Murine lymphoma (setting [8]), 9.3 nM.
With [Hiv]^3 Z-Didemnin A [SHPL3], the IC50 (in the series on MEL-28 human melanoma (setting [9]); in [3] (setting [10]); in series [1] (setting [11]); in [2] (setting [12]); in the series on P388 Murine lymphoma (setting [13])) was 4.9 nM each time.
Turning to `CC[C@H](C)[C@H]1NC(=O)[C@@H](NC(=O)[C@@H](CC(C)C)NC)[C@@H](C)OC(=O)[C@H](Cc2ccc(OC)cc2)N(C)C(=O)[C@@H]2CCCN2C(=O)[C@H](CC(C)C)NC(=O)[C@H](C(C)C)OC(=O)C[C@@H]1O` [SHPL2, [Hiv]^3-Didemnin A] (H-[dNMeL]T[X2][Hiv]LP[NMeY](Me); ester 2-C), the IC50 in the series on MEL-28 human melanoma (setting [5]) was determined as 1.13 nM; in series [1] (setting [6]) it was 1.13 nM; in [2] (setting [7]), 1.13 nM; with P388 Murine lymphoma (setting [8]), 1.1 nM.
For `CC[C@H](C)[C@H]1NC(=O)[C@@H](NC(=O)[C@@H](CC(C)C)N(C)C(=O)[C@@H]2CCCN2C(=O)C(C)=O)[C@@H](C)OC(=O)[C@H](Cc2ccc(OC)cc2)N(C)C(=O)[C@@H]2CCCN2C(=O)[C@H](CC(C)C)NC(=O)[C@H](C(C)C)NC(=O)C[C@@H]1O` [SVPL1, [Val]^3-Aplidine] (Pyruvoyl-P[dNMeL]T[X2]VLP[NMeY](Me); ester 3-C), the 50% inhibitory concentration (IC50) was found to be 0.113 nM with MEL-28 human melanoma (Homo sapiens, SK-MEL-28, read-out: Cytotoxicity of [aa3]-aplidine Congeners IC50 (Molar) MEL28); 0.113 nM in series [1] (Homo sapiens, A549, read-out: Cytotoxicity of [aa3]-aplidine Congeners IC50 (Molar) A549); 0.113 nM in series [2] (Homo sapiens, HT-29, read-out: Cytotoxicity of [aa3]-aplidine Congeners IC50 (Molar) HT29); 0.113 nM with P388 Murine lymphoma (Mus musculus, P388, read-out: Cytotoxicity of [aa3]-aplidine Congeners IC50 (Molar) P388). For the same compound, in the series on tumor cells, the “in vitro antitumor activity” value was “high level of in vitro antitumor activity”.
For the compound [Val]^3 Z-Didemnin A [SVPL3], the IC50 (in the series with MEL-28 human melanoma (setting [9]); in [3] (setting [10]); in [1] (setting [11]); in [2] (setting [12]); in the series on P388 Murine lymphoma (setting [13])) was 0.98 nM throughout.
For [Hiv]^3-[L-Lac]^9-aplidine [9LSHPL1(L)], the “in vitro antitumor activity in clonogenic assays” value in series [4] is “retains similar levels of in vitro antitumor activity”. In addition, in the series with pancreatic carcinoma, the “in vitro activity against pancreatic carcinoma” value is “somewhat more active in vitro than III”. For the same compound, the “protein biosynthesis inhibition properties” value with protein biosynthesis is “retains similar levels”. Besides, the “tumor type specificity in NCI 60 cell panel” value in the series on NCI 60 cell panel is reported as “does not show any tumor type specificity”.
Turning to `CC[C@H](C)[C@H]1NC(=O)[C@@H](NC(=O)[C@@H](CC(C)C)NC)[C@@H](C)OC(=O)[C@H](Cc2ccc(OC)cc2)N(C)C(=O)[C@@H]2CCCN2C(=O)[C@H](CC(C)C)NC(=O)[C@H](C(C)C)NC(=O)C[C@@H]1O` [SVPL2, [Val]^3-Didemnin A] (H-[dNMeL]T[X2]VLP[NMeY](Me); ester 2-C), the IC50 in the series on MEL-28 human melanoma (setting [5]) worked out at 1.13 nM; in series [3] (Homo sapiens, DU-145, read-out: Cytotoxicity of aplidine derivatives IC50 (Molar) DU145), 1.13 nM; in series [1] (setting [6]), 1.13 nM; in series [2] (setting [7]) it was 1.13 nM; in the series with P388 Murine lymphoma (setting [8]) it was 1.1 nM.
In the case of `CC[C@H](C)[C@H]1NC(=O)[C@@H](NC(=O)[C@@H](CC(C)C)NC)[C@@H](C)OC(=O)[C@H](Cc2ccc(OC)cc2)N(C)C(=O)[C@@H]2CCCN2C(=O)[C@H](CC(C)C)NC(=O)[C@@H](C)C(=O)[C@H](C(C)C)OC(=O)C[C@@H]1O` [SAPL2, Didemnin A, reference compound] (H-[dNMeL]T[X1]LP[NMeY](Me); ester 2-C), the IC50 in the series with MEL-28 human melanoma (setting [5]) is 1.13 nM; in [1] (setting [6]), 4.24 nM; in [2] (setting [7]) it was 8.48 nM; in the series on P388 Murine lymphoma (setting [8]) it was 5.3 nM.
In the case of `CC[C@H](C)[C@H]1NC(=O)[C@@H](NC(=O)[C@@H](CC(C)C)N(C)S(C)(=O)=O)[C@@H](C)OC(=O)[C@H](Cc2ccc(OC)cc2)N(C)C(=O)[C@@H]2CCCN2C(=O)[C@H](CC(C)C)NC(=O)[C@@H](C)C(=O)[C@H](C(C)C)OC(=O)C[C@@H]1O` [8MSAPL1, [Methylsulphonyl]^8-didemnin A] (Ms-[dNMeL]T[X1]LP[NMeY](Me); ester 2-C), the IC50 in series [1] (setting [6]) and in series [2] (setting [7]) was 0.979 nM throughout.
Consider `CC[C@H](C)[C@H]1NC(=O)[C@@H](NC(=O)[C@@H](CC(C)C)N(C)C(=O)[C@@H](NC(=O)C(C)C)C(C)C)[C@@H](C)OC(=O)[C@H](Cc2ccc(OC)cc2)N(C)C(=O)[C@@H]2CCCN2C(=O)[C@H](CC(C)C)NC(=O)[C@H](C(C)C)OC(=O)C[C@@H]1O` [8V9ISHPL1, [Hiv]^3-[Val]^8-[Isobutyryl]^9-didemnin A] (Isobutyryl-V[dNMeL]T[X2][Hiv]LP[NMeY](Me); ester 3-C), for which the IC50 in [1] (setting [6]) and in [2] (setting [7]) was 9.46 nM each time.
On to `CC[C@H](C)[C@H]1NC(=O)[C@@H](NC(=O)[C@@H](CC(C)C)NC)[C@@H](C)OC(=O)[C@H](Cc2ccc(OC)cc2)N(C)C(=O)[C@@H]2CCCN2C(=O)[C@H](CC(C)C)NC(=O)[C@@H](C)C(=O)[C@H](C(C)C)NC(=O)C[C@@H]1O` [SNPL2, [Aip]^3-Didemnin A] (H-[dNMeL]T[X2][X4]LP[NMeY](Me); ester 2-C), for which the IC50 in series [1] (setting [6]) and in [2] (setting [7]) was 10.6 nM throughout.
For `CC[C@H](C)[C@H]1NC(=O)[C@@H](NC(=O)[C@@H](CC(C)C)N(C)C(=O)C(C)C)[C@@H](C)OC(=O)[C@H](Cc2ccc(OC)cc2)N(C)C(=O)[C@@H]2CCCN2C(=O)[C@H](CC(C)C)NC(=O)[C@H](C(C)C)NC(=O)C[C@@H]1O` [8ISVPL1, [Val]^3-[Isobutyryl]^8-didemnin A] (Isobutyryl-[dNMeL]T[X2]VLP[NMeY](Me); ester 2-C), the IC50 in series [1] (setting [6]) and in series [2] (setting [7]) was 0.105 nM throughout.
As to `CC[C@H](C)[C@H]1NC(=O)[C@@H](NC(=O)[C@@H](CC(C)C)N(C)C(=O)[C@@H]2CCCN2C(=O)[C@H](C)NC(=O)OC(C)(C)C)[C@@H](C)OC(=O)[C@H](Cc2ccc(OC)cc2)N(C)C(=O)[C@@H]2CCCN2C(=O)[C@H](CC(C)C)NC(=O)[C@H](C(C)C)OC(=O)C[C@@H]1O` [9BASHPL2, [Hiv]^3-[Boc-Ala]^9-aplidine] (Boc-AP[dNMeL]T[X2][Hiv]LP[NMeY](Me); ester 4-C), the IC50 in series [1] (setting [6]) and in [2] (setting [7]) was 8.65 nM throughout.
As for `CC[C@H](C)[C@H]1NC(=O)[C@@H](NC(=O)[C@@H](CC(C)C)N2CC[C@]3(CCCN3C(=O)OC(C)(C)C)C2=O)[C@@H](C)OC(=O)[C@H](Cc2ccc(OC)cc2)N(C)C(=O)[C@@H]2CCCN2C(=O)[C@H](CC(C)C)NC(=O)[C@@H](C)C(=O)[C@H](C(C)C)OC(=O)C[C@@H]1O` [9SBSAPL1, [(5R)-1-(tert-buthoxycarbonyl)-7-[(1R)-1-carboxy-3-methylbutyl]-6-oxo-1,7-diazaspiro[4,4]nonane]^7-9-aplidine], the IC50 in series [1] (setting [6]) and in series [2] (setting [7]) was 8.68 nM in each case.
For [ZNVa-Pro]^9-aplidine [9NVSAPL2], the IC50 came to 3.93 nM in the series with MEL-28 human melanoma (setting [9]); 3.93 nM in series [3] (setting [10]); 3.93 nM in series [1] (setting [11]); 3.93 nM in [2] (setting [12]); 7.9 nM in the series on P388 Murine lymphoma (setting [13]).
For `CC[C@H](C)[C@H]1NC(=O)[C@@H](NC(=O)[C@@H](CC(C)C)N(C)C(=O)C2CCCN2C(=O)[C@H](C)O[Si](C)(C)C(C)(C)C)[C@@H](C)OC(=O)[C@H](Cc2ccc(OC)cc2)N(C)C(=O)[C@@H]2CCCN2C(=O)[C@H](CC(C)C)NC(=O)[C@H](C(C)C)OC(=O)C[C@@H]1O` (stereo partly drawn) [9LSHPL2(L), [Hiv]^3-[L-Lac(OTBDMS)]^9-aplidine] (X3-[ξP][dNMeL]T[X2][Hiv]LP[NMeY](Me); ester 3-C), the IC50 in series [1] (setting [6]) and in [2] (setting [7]) was 8.55 nM each time.
Regarding `C=C(C)C(=O)N1CCC[C@]12CCN([C@H](CC(C)C)C(=O)N[C@@H]1C(=O)N[C@H]([C@@H](C)CC)[C@@H](O)CC(=O)O[C@@H](C(C)C)C(=O)N[C@@H](CC(C)C)C(=O)N3CCC[C@H]3C(=O)N(C)[C@@H](Cc3ccc(OC)cc3)C(=O)O[C@@H]1C)C2=O` [9SASHPL1], the 50% inhibitory concentration (IC50) in series [1] (setting [6]) and in series [2] (setting [7]) was 93.9 nM in each case.
